What was measured:
[1] = loss of propionic acid during baking; type: physicochemical; conditions: during baking and up to 24 h thereafter
Experimental: Using the method known to those skilled in the art, the loss of propionic acid was determined in order to find out how much propionic acid is present in the various intermediates (dough versus baked product). […] This may be explained by the fact that at the end of the baking time the bread crumb has a temperature of at most 98° C.-106° C. Propionic acid has a boiling point of 141° C. and is therefore retained in the bread crumb during the baking to completion and also after cooling, and therefore can effect the desired protection against mold.

[2] = system: bacteria; conditions: cited from earlier work
[3] = cited from earlier work
[4] = system: mold; experiment: storage study of bread, mold-free time; conditions: bread with 0.4% propionic acid added
[5] = system: mold fungi; conditions: pH 5.5; depending on the fungal species; cited from earlier work
[6] = system: A. niger; experiment: challenge experiment, mycelial growth on bread; type: cell-based
[7] = system: P. roqueforti; experiment: challenge experiment on inoculated bread slices; type: cell-based; conditions: based on initial flour weight
Text: The inoculated bread slices, already after 2-4 days, had mycelia of P. roqueforti. In order to inhibit this mold fungus growth, a concentration of greater than 0.4% w/w propionic acid (based on the initial flour weight) was required.

CCC(=O)O [propionic acid]
concentration of propionic acid during baking [1]: remained roughly constant
concentration necessary for inhibition of bacteria [2]: 1.6-6%
toxicity on oral intake [3]: not acutely toxic
mold-free time longer compared with propionic acid-free bread [4]: 14 days
concentration inhibiting growth of mold fungi [5]: 0.0125-1.25%
chemical addition needed to achieve comparable preservation results ([6]; compared with co-fermentation giving 0.2% propionic and 0.2% acetic acid): at least 0.4%
concentration suppressing growth of A. niger up to the end of the study ([6]; propionic acid alone, breads, challenge experiment): 0.3%
concentration required to inhibit mold fungus growth [7]: greater than 0.4 % w/w

— patent publication US20120045543A1, “SHELF-LIFE EXTENSION OF SOUR DOUGH BAKED GOODS” (ERNST BÖCKER GMBH & CO. KG, priority 2009, published 2012)
